# ChEMBL document CHEMBL3864159, “Variation of the aryl substituent on the piperazine ring within the 4-(piperazin-1-yl)-2,6-di(pyrrolidin-1-yl)pyrimidine scaffold unveils potent, non-competitive inhibitors of the inflammatory caspases” (Bioorg Med Chem Lett, 2016)
# Calls of active or inactive are those of the source. No cut-off for these calls is given here.
# How the values were obtained:
# [1] = species on record: Homo sapiens; test: Selectivity ratio of Ki for human recombinant N-terminal His-tagged DTT-activated caspase-1 expressed in Escherichia coli to Ki for human recombinant DTT-activated caspase-5 expressed in Escherichia coli
# [2] = species on record: Homo sapiens; test: Selectivity ratio of Ki for human recombinant N-terminal His-tagged DTT-activated caspase-4 expressed in Escherichia coli to Ki for human recombinant DTT-activated caspase-5 expressed in Escherichia coli
# [3] = species on record: Homo sapiens; test: Selectivity ratio of Ki for human recombinant N-terminal His-tagged DTT-activated caspase-1 expressed in Escherichia coli to Ki for human recombinant N-terminal His-tagged DTT-activated caspase-4 expressed in Escherichia coli
# [4] = species on record: Homo sapiens; test: Selectivity ratio of Ki for human recombinant DTT-activated caspase-5 expressed in Escherichia coli to Ki for human recombinant N-terminal His-tagged DTT-activated caspase-4 expressed in Escherichia coli
# [5] = molecular target: T1, Caspase-1 (Homo sapiens) (UniProt P29466); test: Non-competitive inhibition of human recombinant N-terminal His-tagged DTT-activated caspase-1 expressed in Escherichia coli using 5 to 50 uM Ac-WEHD-AMC as substrate preincubated for 30 mins followed by substrate addition by Michaelis-Menten plot analysis
# T1 sequence (whole entry): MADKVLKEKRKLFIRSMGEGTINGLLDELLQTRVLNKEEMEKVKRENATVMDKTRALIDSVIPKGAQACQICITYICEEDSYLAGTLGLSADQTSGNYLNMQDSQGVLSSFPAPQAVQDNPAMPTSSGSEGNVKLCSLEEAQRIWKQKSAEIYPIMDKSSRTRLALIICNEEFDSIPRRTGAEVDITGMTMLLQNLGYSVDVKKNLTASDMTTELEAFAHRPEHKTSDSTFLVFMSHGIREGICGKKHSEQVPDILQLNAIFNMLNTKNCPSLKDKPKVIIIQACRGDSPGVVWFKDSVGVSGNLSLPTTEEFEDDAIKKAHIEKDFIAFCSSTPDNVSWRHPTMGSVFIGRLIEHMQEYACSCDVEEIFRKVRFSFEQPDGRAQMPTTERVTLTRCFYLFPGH
# [6] = molecular target: Cathepsin B (Homo sapiens) (UniProt P07858); test: Inhibition of human recombinant cathepsin-B at 5 uM preincubated for 10 mins followed by Z-FR-AMC substrate addition by fluorescence assay
# [7] = molecular target: T2, Papain (Carica papaya) (UniProt P00784); test: Inhibition of papaya papain at 5 uM preincubated for 10 mins followed by Suc-LLVY-AMC substrate addition by fluorescence assay relative to control
# T2 sequence (whole entry): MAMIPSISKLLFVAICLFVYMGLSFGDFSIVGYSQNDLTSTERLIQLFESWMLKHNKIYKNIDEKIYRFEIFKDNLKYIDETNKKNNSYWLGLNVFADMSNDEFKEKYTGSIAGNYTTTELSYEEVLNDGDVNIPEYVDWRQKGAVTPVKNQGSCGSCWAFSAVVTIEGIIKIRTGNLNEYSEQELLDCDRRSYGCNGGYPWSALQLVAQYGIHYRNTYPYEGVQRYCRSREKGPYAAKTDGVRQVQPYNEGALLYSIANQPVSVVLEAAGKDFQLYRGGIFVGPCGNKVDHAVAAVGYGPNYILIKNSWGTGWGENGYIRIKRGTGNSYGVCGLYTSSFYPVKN
# [8] = molecular target: T3, Calpain-1 catalytic subunit (Homo sapiens) (UniProt P07384); test: Inhibition of full-length human calpain-1 at 5 uM preincubated for 10 mins followed by Suc-LLVY-AMC substrate addition by fluorescence assay relative to control
# T3 sequence (whole entry): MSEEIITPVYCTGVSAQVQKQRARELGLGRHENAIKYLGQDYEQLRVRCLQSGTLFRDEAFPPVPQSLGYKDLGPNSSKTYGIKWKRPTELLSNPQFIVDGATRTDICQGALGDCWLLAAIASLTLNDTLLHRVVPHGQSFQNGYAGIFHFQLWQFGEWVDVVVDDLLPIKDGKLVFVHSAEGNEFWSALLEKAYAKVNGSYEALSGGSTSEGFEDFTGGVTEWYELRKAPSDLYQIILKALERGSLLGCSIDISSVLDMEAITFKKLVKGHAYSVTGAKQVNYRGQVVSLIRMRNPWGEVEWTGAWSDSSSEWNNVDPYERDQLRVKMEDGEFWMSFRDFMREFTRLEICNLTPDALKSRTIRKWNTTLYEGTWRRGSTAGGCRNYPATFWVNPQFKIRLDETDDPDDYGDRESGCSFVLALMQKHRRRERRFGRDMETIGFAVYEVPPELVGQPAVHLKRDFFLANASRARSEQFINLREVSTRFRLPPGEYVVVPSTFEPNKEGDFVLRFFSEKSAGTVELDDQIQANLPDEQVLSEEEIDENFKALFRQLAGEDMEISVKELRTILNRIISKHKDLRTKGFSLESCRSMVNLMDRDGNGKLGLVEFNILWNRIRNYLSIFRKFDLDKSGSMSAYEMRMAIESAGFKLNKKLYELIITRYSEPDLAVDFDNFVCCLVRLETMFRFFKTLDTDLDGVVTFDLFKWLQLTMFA
# [9] = molecular target: T4, Cathepsin K (Homo sapiens) (UniProt P43235); test: Inhibition of human recombinant cathepsin-K at 5 uM preincubated for 10 mins followed by Z-FR-AMC substrate addition by fluorescence assay
# T4 sequence (whole entry): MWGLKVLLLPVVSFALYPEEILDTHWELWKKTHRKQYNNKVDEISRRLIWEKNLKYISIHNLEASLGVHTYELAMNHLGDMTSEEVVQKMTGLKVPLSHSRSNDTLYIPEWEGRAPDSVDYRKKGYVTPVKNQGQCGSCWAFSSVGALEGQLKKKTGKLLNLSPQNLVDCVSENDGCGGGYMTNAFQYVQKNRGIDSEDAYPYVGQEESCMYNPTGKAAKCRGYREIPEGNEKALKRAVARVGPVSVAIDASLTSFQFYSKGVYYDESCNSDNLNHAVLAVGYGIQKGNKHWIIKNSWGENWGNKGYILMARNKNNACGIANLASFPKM
# [10] = molecular target: T4, Cathepsin K (Homo sapiens); test: Inhibition of human recombinant cathepsin-K assessed as residual activity at 5 uM preincubated for 10 mins followed by Z-FR-AMC substrate addition by fluorescence assay relative to control
Ratio Ki [1],Ratio Ki [2],Ratio Ki [3],Ratio Ki [4],inhibition [5],inhibition [6],inhibition [7],inhibition [8],inhibition [9],Activity [10],Structure (SMILES)
10,10,–,–,–,–,–,–,–,–,O=[N+]([O-])c1ccc(CN2CCN(c3cc(N4CCCC4)nc(N4CCCC4)n3)CC2)cc1
10,10,–,–,–,–,–,–,–,–,c1cc(CN2CCN(c3cc(N4CCCC4)nc(N4CCCC4)n3)CC2)ccn1
–,–,2,2,Active,Active,Active,Active,Active,–,c1ccc(CCN2CCN(c3cc(N4CCCC4)nc(N4CCCC4)n3)CC2)cc1
10,10,–,–,–,Active,Active,Active,Active,–,c1cncc(CN2CCN(c3cc(N4CCCC4)nc(N4CCCC4)n3)CC2)c1
–,–,–,–,–,Active,Active,Active,–,78%,COc1cccc(CN2CCN(c3cc(N4CCCC4)nc(N4CCCC4)n3)CC2)c1
